Results reported in PMC9477273 (2022).

Test system: biosensor 566229815 (RNA, ribozyme) GGGAAACAAACAAAGCUGUCACUGGAUUUCUUGACGAAUGUGCAGGAAACGGCUCCGGUCUGAUGAGUUCGUGGCGGGACGAAACAGCAAAAAGAAAAA
Assay: CleaveSeq ribozyme cleavage, deconvolution of 256-compound mixtures
Conditions: sub-mM free Mg2+ (chelated by 9 mM rNTPs); 2 μM each compound in mixtures; ligand inferred ("highly likely"); 37 °C

fold change of cleavage: > 2 fold
Compound: C=CC[n+]1c(C=C2C=CC=CN2C)sc2ccccc21
